Series [1] is described as follows: Long-term storage stability of aqueous solutions (CPMP/ICH/2736/99), HPLC-DAD relative quantification. The settings on record: for kobs (first-order degradation rate constant) / t1/2 (half-time period) / tlag (lag time): pure aqueous solution; for stability as pure solution: first 30 days. Format: physicochemical. The protocol: According to the guidance CPMP/ICH/2736/99, aqueous solutions of HT, OL, OPT3 extract, and CONV extract were stored at four different conditions of temperature (ambient, refrigerated, […], and intermediate) and humidity. The conditions were: T = 5 ± 3 °C (with no humidity), T = 25 ± 2 °C (with 60 ± 5% RH), T = 30 ± 2 °C (with 65 ± 5% RH) and T = 40 ± 2 °C (with 75 ± 5% RH) up to a final duration of 6 months. For OPT3, HT was relatively quantified as % with respect to the concentration (C0) at the initial time (t0), while for CONV both % HT and % OL content were calculated similarly. […] The stability of up to 6 months is presented in the Figure S1 of the Supplementary Material. […] The lag time (tlag) represents the time that the concentration of the compound remains constant and, if present, is determined as the intercept of the initial degradation time with the initial concentration value. The half-life period (t1/2) is calculated from Equation (2). The degradation constant (kobs), the t1/2, and the time lag (tlag) together with the correlation coefficient (R^2) for each compound and storage condition are presented in Table 5. ln(C0/Ct) = kobs(t - tlag)(1) t1/2 = ln(2)/k + tlag(2) The quantitative determination of HT, TY, and OL was performed by an HPLC-DAD system: Waters e2695 separation module with an autosampler (20 μL injection volume) and a quaternary pump, coupled with Waters 2998 photodiode array detector set at 280 nm (Waters®, Dublin, Ireland). A C18 Mediterranean Sea column (250 × 4.6 mm, 5 μm) (Teknokroma Analítica S.A., Barcelona, Spain) at 35 °C connected with an OptiGuard 1 mm guard column (Sigma-Aldrich, St. Louis, MO, USA) were used. The gradient method, together with the eluents and the elution program used, were selected according to […] et al.. Calibration curves for OL (range: 12.5-1250 mg/L, linearity: […] R^2 = 0.9969) were prepared, using standard solutions of the compounds in DMSO, and analyzed in the same conditions as the samples. Compounds in the extracts were identified by comparing the retention time and the UV spectra of the samples with those of the standard solutions, while MS spectra were also used to confirm identification (see 3.7.1. for experimental conditions). […] Samples and calibration curves of standard solutions were analyzed within the same day. For the 6-months storage stability, relative quantification was performed with respect to the initial quantity t0 of each analyte. For data acquisition and processing, Empower® 3 software (Waters®, Dublin, Ireland) was used. Briefly, all compounds and extracts were dissolved in Milli-Q water, as high mineralization could increase the degradation of these substances. Additionally, according to the bibliography, lower concentrations could accelerate the decomposition of a compound. […] All solutions were filtered through a 0.20 μm polyvinylidene fluoride filter. […] To fix the desired humidity for each temperature, appropriate salts have been used according to the bibliography. […] The vials were placed in big glass containers, together with a sufficient quantity of each salt. Then, they were closed airtight and left in different rooms of controlled temperature and protected from light for 6 months. […] For CONV, HT and OL content were measured, while for OPT3 only HT content was calculated due to the lack of OL in this extract. All samples were analyzed in triplicate and the results are expressed as mean of the percentage with respect to the initial concentration t0 ± SD.

The subject of series [2] is human corneal epithelial (HCE) cells. The experiment in a line: In vitro genotoxicity, alkaline comet assay. It is filed as cell-based. Conditions: 24 h, 0.8 mg/mL CONV, 0.4 mg/mL OPT3, 300 μM OL, 100 μM HT, 5 μM + 50 μM OL+HT. From the text:
(§1) According to the ICH guideline S2 (R1), comet assay evaluates the cell DNA damage under a neutral or alkaline electrophoretic field. This leads to the separation between intact and damaged cellular DNA, creating the typical “comet tail” visible from a microscope. By measuring this tail, the extent of the DNA damage can be estimated. In this study, we applied alkaline electrophoresis, because it is more sensitive and can detect smaller amounts of DNA damages, including single and double-stranded DNA breaks, alkali labile DNA adducts, and most oxidative DNA damage.
(§2) Two different human ocular surface cell lines were selected for this assay: HCE and the IM-ConjEpi. The two selected OP extracts (CONV and OPT3) were tested for their in vitro genotoxicity on both cell lines, together with the two principal pure olive compounds OL and HT, alone or in combination (OL+HT). For each compound or extract, the maximum allowable concentration was selected to be tested, based on the results of their in vitro cytotoxicity on the same cell lines, as previously described.
(§3) HCE is an immortalized human corneal epithelial cell line, kindly offered by Dr. Arto Urti (University of Helsinki, Finland). It was cultured in DMEM/F-12 + GlutaMax supplemented with 10% fetal bovine serum, 10 ng/mL human epithelial growth factor, 5 μg/mL human insulin and antibiotics (100 U/mL penicillin + 0.1 mg/mL streptomycin). IM-ConjEpi was supplied by Innoprot (Derio, Spain. Ref. P10870-IM) and is an SV40- Large T Antigen immortalized human conjunctival epithelial cell line. It was cultured in DMEM/F-12 + GlutaMax supplemented with 10% fetal bovine serum, 10 ng/mL human epithelial growth factor, 1 μg/mL bovine insulin and antibiotics ([…]). HCE cell line was used from passage 25 to 35, while IM-ConjEpi from passage 10 to 20.
(§4) The cells were incubated at 37 °C and 5:95 = CO2:air atmosphere ratio, while their medium was changed every second day. Observations through a phase-contrast microscope were carried out daily.
(§5) For the in vitro tests, HT, OL, CONV, and OPT3 were dissolved in culture medium (DMEM/F-12 + GlutaMax, without any supplement) the day of the experiment. As previously described, CONV was produced by conventional solid–liquid extraction using freeze-dried material without any further pretreatment. OPT3 was generated by PLE extraction using freeze-dried material previously defatted with scCO2. The part of the extracts not dissolved to the culture medium was filtered through a 0.20 μm polyvinylidene fluoride sterile filter. The in vitro concentrations were selected according to a previous study, which described the maximum allowable non-toxic concentration of HT, OL, CONV, and OPT3 on the two ocular surface cell lines used. […]

Series [3] has as its system immortalized human conjunctival epithelial (IM-ConjEpi) cells. The experiment in a line: In vitro genotoxicity, alkaline comet assay. It is filed as cell-based. The settings on record: 24 h, 0.8 mg/mL CONV, 0.4 mg/mL OPT3, 300 μM OL, 100 μM HT, 5 μM + 50 μM OL+HT.
Source text: as §1, §2, §3, §4, §5

Structures are written as SMILES.

For the compound `OCCc1ccc(O)c(O)c1` [HT, hydroxytyrosol], the “stability as standard solution” value in series [1] (5 °C, first month) is recorded as “stable at a high percentage for the entire month”. Further, the “time from which the standard solution is completely degraded” value in series [1] (25 °C) was “fourth month”; in series [1] (30 °C and 40 °C), “third month”. The “kobs (first-order degradation rate constant)” value in series [1] (T = 5 °C/no humidity) was found to be 0.0069 day⁻¹; in series [1] (T = 25 °C/60% RH), 0.0337 day⁻¹; in series [1] (T = 30 °C/65% RH) it was 0.1068 day⁻¹; in series [1] (T = 40 °C/75% RH), 0.1234 day⁻¹. Further, the “t1/2 (half-time period)” value is 101.5 days in series [1] (T = 5 °C/no humidity), 21.6 days in series [1] (T = 25 °C/60% RH), 6.5 days in series [1] (T = 30 °C/65% RH) and 5.6 days in series [1] (T = 40 °C/75% RH). In addition, the “tlag (lag time)” value in series [1] (T = 5 °C/no humidity) was determined as 1.0 days; in series [1] (T = 25 °C/60% RH), 1.0 days; in series [1] (T = 30 °C/65% RH), 0 days; in series [1] (T = 40 °C/75% RH), 0 days. Also, the “Genotoxic effect (%TDNA) versus control group” value in series [2] and in series [3] was “No statistically significant differences” in each case.

As for `C/C=C1/[C@H](O[C@@H]2O[C@H](CO)[C@@H](O)[C@H](O)[C@H]2O)OC=C(C(=O)OC)[C@H]1CC(=O)OCCc1ccc(O)c(O)c1` [OL, oleuropein], the “stability as pure solution” value in series [1] (5 °C or 25 °C) is recorded as “remains at high levels”; in series [1] (temperature values above 30 °C), “highly unstable”. For the same compound, in series [1] (25 °C or below), the “stability as standard solution” value is “stable for up to 1 month”. The half-life at 113 mg/L in series [1] (aqueous solution of the pure compound, pure solution, temperature above 30 °C, read-out: t1/2 (time to reduce the concentration to half of the initial value) (converted)) was roughly 3 days. For the same compound, the “kobs (first-order degradation rate constant)” value in series [1] (T = 5 °C/no humidity) stood at 0.0099 day⁻¹; in series [1] (T = 25 °C/60% RH), 0.0065 day⁻¹; in series [1] (T = 30 °C/65% RH), 0.4022 day⁻¹; in series [1] (T = 40 °C/75% RH) it was 0.3658 day⁻¹. The “t1/2 (half-time period)” value is 81.3 days in series [1] (T = 5 °C/no humidity), 116.5 days in series [1] (T = 25 °C/60% RH), 1.7 days in series [1] (T = 30 °C/65% RH) and 1.9 days in series [1] (T = 40 °C/75% RH). Moreover, the “tlag (lag time)” value turned out to be 11.3 days in series [1] (T = 5 °C/no humidity), 9.9 days in series [1] (T = 25 °C/60% RH), 0 days in series [1] (T = 30 °C/65% RH) and 0 days in series [1] (T = 40 °C/75% RH). For the same compound, the “time the compound remains stable” value in series [1] (pure solution, temperature values below 25 °C) is “approximately 11 days”. For the same compound, the “final content compared to t0” value in series [1] (standard solution, 5 °C and 25 °C, 6 months) is reported as “ca. 35%”. Besides, the “Genotoxic effect (%TDNA) versus control group” value in series [2] and in series [3] was “No statistically significant differences” in each case.

The values above are taken from article PMC8512844, “Olive Pomace Phenolic Compounds Stability and Safety Evaluation: From Raw Material to Future Ophthalmic Applications” (Molecules, 2021).
